Results: US11168086B2, “Methods of synthesizing pyrazine compounds” (Hoffmann-La Roche Inc., priority 2015, dated 2021)

System: HBV
Test: HBV inhibition assay: anti-HBV activity in vitro in HepG2.2.15 cells (extracellular HBV DNA by qPCR)
Type: cell-based
Settings: Hepatitis B virus, 120 h, five days after compound treatment, extracellular HBV DNA in culture supernatant by qPCR, concentration at which HBV replication is inhibited by 50%
Text: Example 441: HBV Inhibition Assays
Cell Line and Culture Conditions:
HepG2.2.15 is a stably-transfected cell line containing the HBV genome. It is derived from the hepatoblastoma cell line Hep G2 (American Type Culture Collection, ATCC® HB-8065™) by the published procedures described in reference: MA Selles et al. Proc. Natl. Acad. Sci. USA 1987, 84, 1005-1009. The cell line was maintained in Dulbecco's modified Eagle's medium (DMEM)-F12 medium supplemented with 10% fetal bovine serum, 100 U/mL penicillin, 100 μg/mL streptomycin, and 0.5 mg/mL of G418.
Anti-HBV Activity In Vitro:
HepG2.2.15 cells were seeded into 96-well plates (3×10^4 cells in 100 μL media per well) and incubated overnight at 37° C. The test compounds were serially half-log diluted in DMSO, then diluted 100 times in culture media. 100 μL diluted compounds were added into the plates to reach 0.5% final concentration of DMSO in every well. Five days after compound treatment, culture supernatant was collected for further analysis.
For quantitative PCR detection of extracellular HBV DNA, culture supernatant was processed by Proteinase K digestion. After heat inactivation of the enzyme, the samples were subjected to HBV DNA quantification by qPCR. The effective compound concentration at which
HBV replication is inhibited by 50% (EC50) was determined.

Structure (SMILES): C[C@H]1Cn2ncc(N3C(=O)COC[C@@H]3C)c2CN1C(=O)Nc1cc(F)c(F)c(F)c1 [Example 372, (6S)-6-methyl-3-[(3S)-3-methyl-5-oxo-morpholin-4-yl]-N-(3,4,5-trifluorophenyl)-6,7-dihydro-4H-pyrazolo[1,5-a]pyrazine-5-carboxamide]
- EC50: 50 nM

Structure (SMILES): N#Cc1cc(NC(=O)N2CCn3cnc(-c4ccc(F)cc4F)c3C2)ccc1F [Example 136, N-(3-cyano-4-fluoro-phenyl)-1-(2,4-difluorophenyl)-6,8-dihydro-5H-imidazo[1,5-a]pyrazine-7-carboxamide]
- EC50: 56 nM

Structure (SMILES): C[C@H]1Cn2ncc(N3C[C@@H](c4cnco4)OCC3=O)c2CN1C(=O)Nc1cc(F)c(F)c(F)c1 [Example 407, (6S)-6-methyl-3-[(2S)-2-oxazol-5-yl-5-oxo-morpholin-4-yl]-N-(3,4,5-trifluorophenyl)-6,7-dihydro-4H-pyrazolo[1,5-a]pyrazine-5-carboxamide]
- EC50: 24 nM

Structure (SMILES): CC1Cn2ncc(-c3ccc(F)cn3)c2CN1C(=O)Nc1ccc(F)c(C#N)c1 (stereo not shown) [Example 100, N-(3-cyano-4-fluoro-phenyl)-3-(5-fluoro-2-pyridyl)-6-methyl-6,7-dihydro-4H-pyrazolo[1,5-a]pyrazine-5-carboxamide]
- EC50: 61 nM

Structure (SMILES): C[C@H]1Cn2ncc(N3CC4CC4C3=O)c2CN1C(=O)Nc1cc(F)c(F)c(F)c1 (stereo partly drawn) [Example 253, (6S)-6-methyl-3-(2-oxo-3-azabicyclo[3.1.0]hexan-3-yl)-N-(3,4,5-trifluorophenyl)-6,7-dihydro-4H-pyrazolo[1,5-a]pyrazine-5-carboxamide]
- EC50: 44 nM

Structure (SMILES): C[C@H]1Cn2ncc(N3CC4(CCC4)OC3=O)c2CN1C(=O)Nc1cc(F)c(F)c(F)c1 [Example 332, (6S)-6-methyl-3-(6-oxo-5-oxa-7-azaspiro[3.4]octan-7-yl)-N-(3,4,5-trifluorophenyl)-6,7-dihydro-4H-pyrazolo[1,5-a]pyrazine-5-carboxamide]
- EC50: 11 nM

Structure (SMILES): N#Cc1cc(NC(=O)N2CCn3ncc(C4CCCC4)c3C2)ccc1F [Example 79, N-(3-cyano-4-fluoro-phenyl)-3-cyclopentyl-6,7-dihydro-4H-pyrazolo[1,5-a]pyrazine-5-carboxamide]
- EC50: 28 nM

Structure (SMILES): CC1Cn2ncc(-c3ccc(F)cc3)c2CN1C(=O)Nc1ccc(F)c(Cl)c1 (stereo not shown) [Example 61, N-(3-chloro-4-fluoro-phenyl)-3-(4-fluorophenyl)-6-methyl-6,7-dihydro-4H-pyrazolo[1,5-a]pyrazine-5-carboxamide]
- EC50: 29 nM

Structure (SMILES): Cc1cc(NC(=O)N2CCn3ncc(-c4ccc(F)cc4)c3C2)ccc1F [Example 81, N-(4-fluoro-3-methyl-phenyl)-3-(4-fluorophenyl)-6,7-dihydro-4H-pyrazolo[1,5-a]pyrazine-5-carboxamide]
- EC50: 32 nM

Structure (SMILES): C[C@H]1Cn2ncc(N3CC(c4cnco4)CC3=O)c2CN1C(=O)Nc1cc(F)c(F)c(F)c1 (stereo partly drawn) [Example 247, (6S)-6-methyl-3-(4-oxazol-5-yl-2-oxo-pyrrolidin-1-yl)-N-(3,4,5-trifluorophenyl)-6,7-dihydro-4H-pyrazolo[1,5-a]pyrazine-5-carboxamide]
- EC50: 14 nM

Structure (SMILES): CC1Cn2ncc(-c3ccc(F)cc3F)c2CN1C(=O)Nc1ccc(F)c(Cl)c1 (stereo not shown) [Example 92, N-(3-chloro-4-fluoro-phenyl)-3-(2,4-difluorophenyl)-6-methyl-6,7-dihydro-4H-pyrazolo[1,5-a]pyrazine-5-carboxamide]
- EC50: 13 nM

Structure (SMILES): C[C@H]1Cn2ncc(N3CC(c4cocn4)OC3=O)c2CN1C(=O)Nc1cc(F)c(F)c(F)c1 (stereo partly drawn) [Example 348, (6S)-6-methyl-3-(5-oxazol-4-yl-2-oxo-oxazolidin-3-yl)-N-(3,4,5-trifluorophenyl)-6,7-dihydro-4H-pyrazolo[1,5-a]pyrazine-5-carboxamide]
- EC50: 94 nM

Structure (SMILES): C[C@H]1Cn2ncc(N3C[C@H](C#N)CC3=O)c2CN1C(=O)Nc1cc(F)c(F)c(F)c1 [Example 240-1, (6S)-3-[(4R)-4-cyano-2-oxo-pyrrolidin-1-yl]-6-methyl-N-(3,4,5-trifluorophenyl)-6,7-dihydro-4H-pyrazolo[1,5-a]pyrazine-5-carboxamide]
- EC50: 55 nM

Structure (SMILES): N#Cc1cc(NC(=O)N2CCn3ncc(-c4ccc(F)cc4F)c3C2)ccc1F [Example 142, N-(3-cyano-4-fluoro-phenyl)-3-(2,4-difluorophenyl)-6,7-dihydro-4H-pyrazolo[1,5-a]pyrazine-5-carboxamide]
- EC50: 56 nM

Structure (SMILES): C[C@H]1Cn2ncc(N3CC(C#N)CC3=O)c2CN1C(=O)Nc1cc(F)c(F)c(F)c1 (stereo partly drawn) [Example 240, (6S)-3-(4-cyano-2-oxo-pyrrolidin-1-yl)-6-methyl-N-(3,4,5-trifluorophenyl)-6,7-dihydro-4H-pyrazolo[1,5-a]pyrazine-5-carboxamide]
- EC50: 16 nM

Structure (SMILES): Cc1cnn(-c2cnn3c2CN(C(=O)Nc2ccc(F)c(Cl)c2)CC3)c1 [Example 171, N-(3-chloro-4-fluoro-phenyl)-3-(4-methylpyrazol-1-yl)-6,7-dihydro-4H-pyrazolo[1,5-a]pyrazine-5-carboxamide]
- EC50: 45 nM

Structure (SMILES): O=C(Nc1ccc(F)c(Cl)c1)N1CCn2ncc(N3CCCC3=O)c2C1 [Example 170, N-(3-chloro-4-fluoro-phenyl)-3-(2-oxopyrrolidin-1-yl)-6,7-dihydro-4H-pyrazolo[1,5-a]pyrazine-5-carboxamide]
- EC50: 46 nM

Structure (SMILES): C[C@H]1Cn2ncc(N3CC(c4cccc(F)n4)OC3=O)c2CN1C(=O)Nc1cc(F)c(F)c(F)c1 (stereo partly drawn) [Example 411, (6S)-3-[5-(6-fluoro-2-pyridyl)-2-oxo-oxazolidin-3-yl]-6-methyl-N-(3,4,5-trifluorophenyl)-6,7-dihydro-4H-pyrazolo[1,5-a]pyrazine-5-carboxamide]
- EC50: 18 nM

Structure (SMILES): O=C(Nc1ccc(F)c(Cl)c1)N1CCn2cnc(-c3ccc(F)cc3)c2C1 [Example 127, N-(3-chloro-4-fluoro-phenyl)-1-(4-fluorophenyl)-6,8-dihydro-5H-imidazo[1,5-a]pyrazine-7-carboxamide]
- EC50: 86 nM

Structure (SMILES): N#Cc1cc(NC(=O)N2CCn3ncc(-c4ccc(F)cn4)c3C2)ccc1F [Example 76, N-(3-cyano-4-fluoro-phenyl)-3-(5-fluoro-2-pyridyl)-6,7-dihydro-4H-pyrazolo[1,5-a]pyrazine-5-carboxamide]
- EC50: 95 nM

Structure (SMILES): C[C@H]1Cn2ncc(N3CC(c4cnn(C)c4)CC3=O)c2CN1C(=O)Nc1cc(F)c(F)c(F)c1 (stereo partly drawn) [Example 412, (6S)-6-methyl-3-[4-(1-methylpyrazol-4-yl)-2-oxo-pyrrolidin-1-yl]-N-(3,4,5-trifluorophenyl)-6,7-dihydro-4H-pyrazolo[1,5-a]pyrazine-5-carboxamide]
- EC50: 21 nM

Structure (SMILES): COC1CC(=O)N(c2cnn3c2CN(C(=O)Nc2ccc(F)c(Cl)c2)[C@@H](C)C3)C1 (stereo partly drawn) [Example 238, (6S)—N-(3-chloro-4-fluoro-phenyl)-3-(4-methoxy-2-oxo-pyrrolidin-1-yl)-6-methyl-6,7-dihydro-4H-pyrazolo[1,5-a]pyrazine-5-carboxamide]
- EC50: 21 nM

Structure (SMILES): CCOC(=O)N1CC2(CC(=O)N(c3cnn4c3CN(C(=O)Nc3cc(F)c(F)c(F)c3)[C@@H](C)C4)C2)C1 [Example 334, ethyl 6-[(6S)-6-methyl-5-[(3,4,5-trifluorophenyl)carbamoyl]-6,7-dihydro-4H-pyrazolo[1,5-a]pyrazin-3-yl]-7-oxo-2,6-diazaspiro[3.4]octane-2-carboxylate]
- EC50: 22 nM

Structure (SMILES): COC(=O)N1CC2(CC(=O)N(c3cnn4c3CN(C(=O)Nc3cc(F)c(F)c(F)c3)[C@@H](C)C4)C2)C1 [Example 333, methyl 6-[(6S)-6-methyl-5-[(3,4,5-trifluorophenyl)carbamoyl]-6,7-dihydro-4H-pyrazolo[1,5-a]pyrazin-3-yl]-7-oxo-2,6-diazaspiro[3.4]octane-2-carboxylate]
- EC50: 46 nM

Structure (SMILES): Cc1ncc(C2CC(=O)N(c3cnn4c3CN(C(=O)Nc3cc(F)c(F)c(F)c3)[C@@H](C)C4)C2)o1 (stereo partly drawn) [Example 349, (6S)-6-methyl-3-[4-(2-methyloxazol-5-yl)-2-oxo-pyrrolidin-1-yl]-N-(3,4,5-trifluorophenyl)-6,7-dihydro-4H-pyrazolo[1,5-a]pyrazine-5-carboxamide]
- EC50: 15 nM

Structure (SMILES): C[C@H]1Cn2ncc(N3CC(Nc4ncccn4)CC3=O)c2CN1C(=O)Nc1cc(F)c(F)c(F)c1 (stereo partly drawn) [Example 269, (6S)-6-methyl-3-[2-oxo-4-(pyrimidin-2-ylamino)pyrrolidin-1-yl]-N-(3,4,5-trifluorophenyl)-6,7-dihydro-4H-pyrazolo[1,5-a]pyrazine-5-carboxamide]
- EC50: 12 nM

Structure (SMILES): C[C@H]1Cn2ncc(N3CC(C)(c4nnco4)CC3=O)c2CN1C(=O)Nc1cc(F)c(F)c(F)c1 (stereo partly drawn) [Example 404, (6S)-6-methyl-3-[4-methyl-4-(1,3,4-oxadiazol-2-yl)-2-oxo-pyrrolidin-1-yl]-N-(3,4,5-trifluorophenyl)-6,7-dihydro-4H-pyrazolo[1,5-a]pyrazine-5-carboxamide]
- EC50: 42 nM

Structure (SMILES): CC1CN(c2cnn3c2CN(C(=O)Nc2cc(F)c(F)c(F)c2)[C@@H](C)C3)C(=O)CO1 (stereo partly drawn) [Example 243, (6S)-6-methyl-3-(2-methyl-5-oxo-morpholin-4-yl)-N-(3,4,5-trifluorophenyl)-6,7-dihydro-4H-pyrazolo[1,5-a]pyrazine-5-carboxamide]
- EC50: 31 nM
